Measured values from patent publication US20230203060A1 (GENFLEET THERAPEUTICS (SHANGHAI) INC., priority 2020, published 2023).
Where two headings read alike, the source gives them in different places.

Experiments:
Format in all cases: cell-based, human
[1] = system: KRAS G12C mutant NCI-H358 cells; test: Cell proliferation inhibition experiment, 3D spheroid, CellTiter-Glo, NCI-H358; conditions: NCI-H358 (KRAS G12C mutant) 3D spheroid, 5 days with compound, CellTiter-Glo, read-out: H358 IC50
Summary of the method: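 First, H358 (800/well) or A549 (400/well) cells are plated in 2% FBS medium and left overnight to form spheroids. Next, compound is added as a 3.16-fold gradient at 0.1% DMSO for 5 days. Finally, CellTiter-Glo signal is read and IC50 derived by four-parameter fitting.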

[2] = system: A549 cells (KRAS G12S mutant); test: Cell proliferation inhibition experiment, 3D spheroid, CellTiter-Glo, A549; conditions: A549 (KRAS G12S mutant) 3D spheroid, 5 days with compound, CellTiter-Glo, read-out: A549 IC50
Description: Raw materials and instruments: NCI-H358 purchased from ATCC; article number: CRL-5807; batch number: 70010825; A549 purchased from ATCC; article number: CCL-185; batch number: 70007820; RPMI1640 purchased from Gibco; article number: 11875-093; batch number: 2152748; F-12K purchased from Gibco; article number: 21127-022; batch number: 2185853; FBS purchased from Gibco; article number: 10099-141; batch number: 2109290CP; PS purchased from Gibco; article number: 15140-122; batch number: 2145451; Trypsin-EDTApurchased from Gibco; article number: 25200-072; batch number: 2085552; CellTiter Glo working solution purchased from Promega; article number: G9683; batch number: 398478; DMSO purchased from VWR AMRESCO; article number: 0231-500ML; batch number: 18C0656168; 384-well spheroid plate purchased from Corning; article number: 3830; batch number: 27519032; white opaque 384-well plate purchased from Corning; article number: 3570; batch number: 26819023; microplate reader purchased from PerkinElmer; model: Envision MLD2105-0020; equipment number 1050369.
NCI-H358 is a KRAS G12C mutant human non-small cell lung cancer cell line, cultured in 10% FBS RPMI-1640+1% PS culture medium; and A549 is a KRAS G12S mutant human lung adenocarcinoma cell line, cultured in 10% FBS F-12K+1% PS culture medium. Cells at logarithmic growth stage were taken, digested with trypsin-EDTA, then collected and counted. H358 was adjusted to 1.8 E4 cells/mL with 2% FBS RPMI-1640 culture medium, and A549 was adjusted to 8.9 E3 cells/mL with 2% FBS F-12K culture medium; 800 (45 μL) H358 or 400 (45 μL) A549 were inoculated respectively in a 384-well spheroid plate and cultured overnight to establish a 3D cell model. A 3.16-fold gradient concentration stock solution of 1000× compound was prepared with DMSO, and diluted 100-fold to 10× compound stock solution with 2% FBS culture medium. On the second day after cell inoculation, 5 μL of 10× compound stock solution was added to each cell culture well, with a final concentration of 1× and a DMSO content of 0.1%. DMSO was used as experimental control (control), and 2% FBS culture medium was used as blank control (blank). After 5 days of compound cell culture, 25 μL of CellTiter-Glo working solution was added to each well, mixed well at 400 rpm and incubated for 30 minutes. After standing at room temperature for 30 minutes, 40 μL of the mixed solution was transferred to a white opaque 384-well plate, and the luminescence chemiluminescence value was read with a microplate reader. The cell proliferation inhibition rate IR (%)=(RLU control -RLU compound)/(RLU control -RLU blank) x100% was calculated. The gradient dilution concentration of the compound and the corresponding cell proliferation inhibition rate were fitted by Prism 6 four-parameter method, and the IC50 value was calculated. The inhibitory activity of the compounds prepared in the above embodiments of the present disclosure on KRAS G12C mutant NCI-H358 cells was 0.0001 μM to 0.5 μM; the inhibitory activity of some compounds on KRAS G12C mutant NCI-H358 cells was 0.001 μM to 0.1 μM or 0.001 μM to 0.05 μM.

[3] = system: KRAS G12C mutant MIA PaCa-2 cells; test: Cell proliferation inhibition experiment, 3D spheroid, CellTiter-Glo, MIA PaCa-2; conditions: 3D cell model in 384-well spheroid plate, 5 days, CellTiter-Glo, read-out: MIA-PaCa2 IC50
Description: Raw materials and instruments: MIA PaCa-2 purchased from ATCC; article number: CRL-1420; batch number: 63143594; DMEM purchased from Gibco; article number: 11995-065; batch number: 2186878; FBS purchased from Gibco; article number: 10099-141; batch number: 2109290CP; Horse Serum purchased from Gibco; article number: 16050-122; batch number: 1818976; PS purchased from Gibco; article number: 15140-122; batch number: 2145451; Trypsin-EDTA purchased from Gibco; article number: 25200-072; batch number: 2085552; CellTiter Glo working solution purchased from Promega; article number: G9683; batch number 398478; DMSO purchased from VWR AMRESCO; article number: 0231-500ML; batch number: 18C0656168; 384-well spheroid plate purchased from Corning; article number: 3830; batch number: 27519032; white opaque 384-well plate purchased from Corning; article number: 3570; batch number: 26819023; microplate reader purchased from PerkinElmer; model: Envision MLD2105-0020; equipment number 1050369.
MIA PaCa-2 is a KRAS G12C mutant human pancreatic cancer cell line, cultured in 10% FBS+2.5% Horse Serum DMEM+1% PS culture medium; cells at logarithmic growth stage were taken, digested with trypsin-EDTA, then collected and counted, and 200 MIA PaCa-2 were inoculated in a 384-well spheroid plate, respectively, and cultured overnight to establish a 3D cell model. A 3.16-fold gradient concentration stock solution of 1000× compound was prepared with DMSO, and diluted 100-fold to 10× compound stock solution with culture medium. On the second day after cell inoculation, 10× compound stock solution was added to each cell culture well, with a final concentration of 1× and a DMSO content of 0.1%. DMSO was used as experimental control (control), and culture medium was used as blank control (blank). After 5 days of compound cell culture, 30 μL of CellTiter-Glo working solution was added to each well, mixed well and incubated for 30 minutes. After standing at room temperature for 30 minutes, 40 μL of the mixed solution was transferred to a white opaque 384-well plate, and the luminescence chemiluminescence value was read with a microplate reader. The cell proliferation inhibition rate IR (%)=(RLU control -RLU compound)/(RLU control−RLU blank)×100% was calculated. The gradient dilution concentration of the compound and the corresponding cell proliferation inhibition rate were fitted by XLFit four-parameter method, and the IC50 value was calculated. The inhibitory activity of the compounds prepared in the above embodiments of the present disclosure on KRAS G12C mutant MIA PaCa-2 cells was 0.0001 μM to 0.5 μM; the inhibitory activity of some compounds on KRAS G12C mutant MIA PaCa-2 cells was 0.001 μM to 0.1 μM or 0.001 μM to 0.05 μM.

[4] = Homo sapiens, MIA PaCa-2, 120 h

| IC50 ([1]; Homo sapiens, NCI-H358, 120 h) | IC50 ([2]; Homo sapiens, A549, 120 h) | IC50 [3, 4] | IC50 [1] | IC50 [2] | IC50 [3] | Structure (SMILES) |
| --- | --- | --- | --- | --- | --- | --- |
| 91 nM | > 30000 nM | 57 nM |  |  |  | C=CC(=O)N1CCN2C(=O)c3c(OCC4CCN(C)CC4)nc(-c4c(O)cccc4F)c(Cl)c3OC[C@H]2C1 [Z40, (6aR)-8-acryloyl-1-((1-methylpiperidin-4-yl)methoxy)-4-chloro-3-(2-fluoro-6-hydroxyphenyl)-6,6a,7,8,9,10-hexahydro-12H-pyrazino[2,1-c]pyrido[3,4-f][1,4]oxazepin-12-one] |
| 37 nM | 6290 nM | 87 nM |  |  |  | C=CC(=O)N1CCN2C(=O)c3c(Oc4cccc5c4OC(C)(C)C5)nc(-c4c(O)cccc4F)c(Cl)c3OC[C@H]2C1 [Z42, (6aR)-8-acryloyl-4-chloro-1-((2,2-dimethyl-2,3-dihydrobenzofuran-7-yl)oxy)-3-(2-fluoro-6-hydroxyphenyl)-6,6a,7,8,9,10-hexahydro-12H-pyrazino[2,1-c]pyrido[3,4-f][1,4]oxazepin-12-one] |
| 26 nM | > 5000 nM | 51 nM |  |  |  | C=CC(=O)N1CCN2C(=O)c3c(N4CCC5(CC5)C4)nc(-c4c(O)cccc4F)c(Cl)c3OC[C@H]2C1 [Z44, (6aR)-8-acryloyl-4-chloro-3-(2-fluoro-6-hydroxyphenyl)-1-(5-azaspiro[2.4]heptan-5-yl)-6,6a,7,8,9,10-hexahydro-12H-pyrazino[2,1-c]pyrido[3,4-f][1,4]oxazepin-12-one] |
| 46 nM | > 20000 nM | 60 nM |  |  |  | C=CC(=O)N1CCN2C(=O)c3c(N4CCC5(COC5)C4)nc(-c4c(O)cccc4F)c(Cl)c3OC[C@H]2C1 [Z45, (6aR)-8-acryloyl-4-chloro-3-(2-fluoro-6-hydroxyphenyl)-1-(2-oxa-6-azaspiro[3.4]octan-6-yl)-6,6a,7,8,9,10-hexahydro-12H-pyrazino[2,1-c]pyrido[3,4-f][1,4]oxazepin-12-one] |
| 47 nM | > 20000 nM | 42 nM |  |  |  | C=CC(=O)N1CCN2C(=O)c3c(N4CCC5CN(C)CC54)nc(-c4c(O)cccc4F)c(Cl)c3OC[C@H]2C1 (stereo partly drawn) [Z47, (6aR)-8-acryloyl-4-chloro-3-(2-fluoro-6-hydroxyphenyl)-1-(5-methylhexahydropyrrolo[3,4-b]pyrrol-1(2H)-yl)-6,6a,7,8,9,10-hexahydro-12H-pyrazino[2,1-c]pyrido[3,4-f][1,4]oxazepin-12-one] |
| 36 nM | > 5000 nM | 39 nM |  |  |  | C=CC(=O)N1CCN2C(=O)c3c(N4CCOC[C@@H]4CC)nc(-c4c(O)cccc4F)c(Cl)c3OC[C@H]2C1 [Z52, (6aR)-8-acryloyl-4-chloro-1-((S)-3-ethylmorpholino)-3-(2-fluoro-6-hydroxyphenyl)-6,6a,7,8,9,10-hexahydro-12H-pyrazino[2,1-c]pyrido[3,4-f][1,4]oxazepin-12-one] |
|  |  |  | 146 nM | > 30000 nM | 292 nM | C=CC(=O)N1CCN2C(=O)c3c(-c4ccccc4)nc(-c4c(O)cccc4F)c(Cl)c3OC[C@H]2C1 [Z53, (6aR)-8-acryloyl-4-chloro-3-(2-fluoro-6-hydroxyphenyl)-1-phenyl-6,6a,7,8,9,10-hexahydro-12H-pyrazino[2,1-c]pyrido[3,4-f]oxazepin-12-one] |
| 124 nM | > 30000 nM | 169 nM |  |  |  | C=CC(=O)N1CCN2C(=O)c3c(-c4ccncc4)nc(-c4c(O)cccc4F)c(Cl)c3OC[C@H]2C1 [Z54] |
|  |  |  | 134 nM | > 1000 nM | 361 nM | C=CC(=O)N1CCN2C(=O)c3c(-c4c(F)cccc4OC)nc(-c4c(O)cccc4F)c(Cl)c3OC[C@H]2C1 [Z55, (6aR)-8-acryloyl-4-chloro-3-(2-fluoro-6-hydroxyphenyl)-1-(2-fluoro-6-methoxyphenyl)-6,6a,7,8,9,10-hexahydro-12H-pyrazino[2,1-c]pyrido[3,4-f]oxazepin-12-one] |
| 134 nM | > 30000 nM | 118 nM |  |  |  | C=CC(=O)N1CCN2C(=O)c3c(N4CCN(C)CC45CC5)nc(-c4c(O)cccc4F)c(Cl)c3OC[C@H]2C1 [Z57, (6aR)-8-acryloyl-4-chloro-3-(2-fluoro-6-hydroxyphenyl)-1-(7-methyl-4,7-diazaspiro[2.5]octan-4-yl)-6,6a,7,8,9,10-hexahydro-12H-pyrazino[2,1-c]pyrido[3,4-f][1,4]oxazepin-12-one] |

| Structure (SMILES) | IC50 ([1]; Homo sapiens, NCI-H358, 120 h) | IC50 ([2]; Homo sapiens, A549, 120 h) | IC50 [3, 4] | IC50 [1] | IC50 [2] | IC50 [3] |
| --- | --- | --- | --- | --- | --- | --- |
| C=CC(=O)N1CCN2C(=O)c3c(N4[C@@H]5CC[C@H]4COC5)nc(-c4c(O)cccc4F)c(Cl)c3OC[C@H]2C1 [Z38, (6aR)-8-acryloyl-1-((1R,5S)-3-oxa-8-azabicyclo[3.2.1]octan-8-yl)-4-chloro-3-(2-fluoro-6-hydroxyphenyl)-6,6a,7,8,9,10-hexahydro-12H-pyrazino[2,1-c]pyrido[3,4-f][1,4]oxazepin-12-one] | 55 nM | > 10000 nM | 88 nM |  |  |  |
